In series [1] the test system is Mycobacterium smegmatis Strain SANK 75075. The experiment in a line: Minimum inhibitory concentration against Mycobacterium smegmatis (agar plate dilution). As to conditions: Mycolicibacterium smegmatis; Mycobacterium smegmatis SANK 75075; nutrient agar containing 5% glycerol; 37° C. for 18 hours. Format: cell-based. As for the experimental part:
The minimum inhibitory concentration of preferred compounds of the invention against Mycobacterium smegmatis Strain SANK 75075 was determined in accordance with the process described below. The concentration of the compound to be tested was set at four stages by four-fold dilution starting from 1000 μg/ml (1000 μg/ml, 250 μg/ml, 62 μg/ml and 15 μg/ml). A 1 ml portion of the diluted sample of each stage was poured into a Petri dish (“Terumo Petri dish”, 90×20 mm). A nutrient agar medium (9 ml, product of Eiken Chemical) containing 5% glycerol was added and they were mixed to prepare a plate medium. A test microorganism Mycobacterium smegmatis SANK 75075 was precultured overnight at 37° C. on a trypto-soy broth (T.S.B) medium (product of Eiken Chemical) containing 5% glycerol. On the testing day, the microorganism solution was diluted 100-fold with T.S.B. and one loopful of the diluted culture was streaked onto the plate medium. After cultivation at 37° C. for 18 hours, the minimum concentration (MIC) of the test substance inhibiting the growth of the microorganism was determined.

A short description of series [2]: Solubility (physico-chemical properties). The series is classed as physicochemical.
The test system of series [3] is Mycobacterium smegmatis SANK 75075. The experiment in a line: Disk assay against Mycobacterium smegmatis. Format: cell-based. As to conditions: Mycolicibacterium smegmatis, SANK75075, 40 μg of test substance per paper disk of 8 mm, read-out: inhibitory zone (circle) diameter. From the text: Compound A-500359E, Compound A-500359F, the amide derivative of Compound A-500359F, Compound A-500359H, Compound A-500359J and Compound A-500359M-3 of the present invention thus available are novel compounds which have not been described in the literature. Their growth inhibitory activity against general gram positive bacteria or gram negative bacteria can be determined by the disk assay method using normal agar medium (product of Eiken Chemical) or heart infusion agar medium (product of Difco Laboratories). Growth inhibitory activity against Mycobacteria, gram positive bacteria belonging to the Actinonycetales, can be determined similarly on the above-described medium added further with glycerin.
So-called disk assay was conducted using 40 μg of a test substance per paper disk of 8 mm.
So-called Disk assay (“Experimental Agricultural Chemistry”. ed. by Agricultural Chemistry Class/Agriculture Dept./Tokyo Univ., 3rd edition, Volume II, published by Asakura Shoten in 1978) was conducted using 40 μg of a test substance per paper disk of 8 mm.

Series [4] concerns Mycobacterium avium Strain NIHJ1605. The experiment in a line: Minimum inhibitory concentration against Mycobacterium avium (broth dilution). The series is classed as cell-based. As to conditions: NIHJ1605, 144 h; Mycobacterium avium NIHJ 1605; Middleblook 7H9 broth; aerobic culture at 37° C. for 6 days. Background: In broth dilution the organism is exposed to a series of concentrations in liquid medium.

In brackets after ≈: the same amount, converted by molar mass.

The values that follow come from patent US6472384B1, “Antimicrobial compounds” (Sankyo Company, Limited, priority 1998, dated 2002).

A word on the MIC: it is the lowest concentration that inhibits growth of the organism. The low end stands for a more susceptible organism, the high end for a less susceptible organism.

In turn, `CCCCCCC(=O)O[C@@H]1[C@@H](O[C@@H](C(N)=O)[C@H]2O[C@@H](n3ccc(=O)[nH]c3=O)[C@H](O)[C@@H]2OC)OC(C(=O)N[C@H]2CCCCNC2=O)=C[C@@H]1OC(=O)CCCCCC` [Exemp. Compound No. 280] returned an MIC in series [1] of 3.1 µg/mL (≈ 3.9 µM).

As to `NC(=O)C(OC1OC(C(=O)O)C(O)C(O)C1O)C1OC(n2ccc(=O)[nH]c2=O)C(O)C1O` (stereo not drawn) [A-500359J], in series [2], the Solubility in chloroform entry was “insoluble”, the Solubility in methanol entry is listed as “slightly soluble”, the “Solubility in normal hexane” value is on record as “insoluble” and the Solubility in water entry is on record as “soluble”.

As to `COC1C(O)C(n2ccc(=O)[nH]c2=O)OC1C(OC1OC(C(=O)O)=CC(O)C1O)C(N)=O` (stereo not drawn) [A-500359F], in series [2], the Solubility in chloroform result is reported as “insoluble”, the Solubility in methanol entry is listed as “slightly soluble”, the “Solubility in normal hexane” value is “insoluble” and the Solubility in water entry is recorded as “soluble”.

For `C=CCC(NC(=O)C1=CC(O)C(O)C(OC(C(N)=O)C2OC(n3ccc(=O)[nH]c3=O)C(O)C2OC)O1)C(=O)O` (stereo not drawn) [A-500359M-3], in series [2], the Solubility in chloroform result is listed as “insoluble”, the Solubility in methanol result is reported as “soluble”, the “Solubility in normal hexane” value is listed as “insoluble” and the Solubility in water entry is listed as “soluble”. The zone of inhibition at 40 µg/disc in series [3] amounted to 12 mm.

`CCCCCCCCCCCCCCCC(=O)O[C@H]1C=C(C(=O)N[C@H]2CCCCNC2=O)O[C@H](O[C@@H](C(N)=O)[C@H]2O[C@@H](n3ccc(=O)[nH]c3=O)[C@H](O)[C@@H]2OC)[C@H]1O` [Exemp. Compound No. 135] showed a minimum inhibitory concentration (MIC) in series [1] of 1.5 µg/mL (≈ 1.86 µM).

Regarding `COC(=O)C1=CC(O)C(O)C(OC(C(N)=O)C2OC(n3ccc(=O)[nH]c3=O)C(O)C2OC)O1` (stereo not drawn) [A-500359E], in series [2], the Solubility in chloroform result is listed as “insoluble”, the Solubility in methanol entry is reported as “slightly soluble”, the “Solubility in normal hexane” value was “insoluble” and the Solubility in water result is listed as “soluble”. Besides, the zone of inhibition at 40 µg/disc in series [3] was 12 mm.

With `CCCCCCCCC(=O)O[C@@H]1[C@H](OC)[C@@H]([C@@H](O[C@H]2OC(C(=O)N[C@H]3CCC[C@@H](C)NC3=O)=C[C@H](O)[C@@H]2O)C(N)=O)O[C@H]1n1ccc(=O)[nH]c1=O` [Exemp. Compound No. 6], in series [1], it took 3.1 µg/mL (≈ 4.28 µM) to inhibit growth (MIC).

In turn, `CCCCCCCCCC(=O)O[C@@H]1[C@H](OC)[C@@H]([C@@H](O[C@H]2OC(C(=O)N[C@H]3CCC[C@@H](C)NC3=O)=C[C@H](O)[C@@H]2O)C(N)=O)O[C@H]1n1ccc(=O)[nH]c1=O` [Exemp. Compound No. 7] registered an MIC in series [1] of 6.2 µg/mL (≈ 8.4 µM).

With `CCCCCCCCCCCCCCCC(=O)O[C@@H]1[C@H](OC)[C@@H]([C@@H](O[C@H]2OC(C(=O)N[C@H]3CCCCNC3=O)=C[C@H](O)[C@@H]2O)C(N)=O)O[C@H]1n1ccc(=O)[nH]c1=O` [Exemp. Compound No. 53], the MIC in series [1] amounted to 6.2 µg/mL (≈ 7.67 µM).

`CO[C@H]1[C@@H](O)[C@H](n2ccc(=O)[nH]c2=O)O[C@@H]1[C@@H](O[C@H]1OC(C(=O)N[C@H]2CCCCNC2=O)=C[C@H](O)[C@@H]1O)C(N)=O` [Capuramycin, capuramycin, reference compound]: the MIC was 12.5 µg/mL (≈ 21.9 µM) in series [1] and 8 µg/mL (≈ 14 µM) in series [4].

For the compound `NC(=O)C(OC1OC(C(=O)O)=CC(O)C1O)C1OC(n2ccc(=O)[nH]c2=O)C(O)C1O` (stereo not drawn) [A-500359H], in series [2], the Solubility in chloroform entry is “insoluble”, the Solubility in methanol entry was “slightly soluble”, the “Solubility in normal hexane” value is recorded as “insoluble” and the Solubility in water result is reported as “soluble”.

In turn, `CO[C@H]1[C@@H](OC(=O)CC(c2ccccc2)c2ccccc2)[C@H](n2ccc(=O)[nH]c2=O)O[C@@H]1[C@@H](O[C@H]1OC(C(=O)N[C@H]2CCC[C@@H](C)NC2=O)=C[C@H](O)[C@@H]1O)C(N)=O` [Exemp. Compound No. 21] yielded a minimum inhibitory concentration (MIC) in series [1] of 6.2 µg/mL (≈ 7.83 µM).

In series [1], `CCCCCCCCCCCCCCCC(=O)O[C@@H]1[C@H](OC)[C@@H]([C@@H](O[C@H]2OC(C(=O)N[C@H]3CCC[C@@H](C)NC3=O)=C[C@H](O)[C@@H]2O)C(N)=O)O[C@H]1n1ccc(=O)[nH]c1=O` [Exemp. Compound No. 11] gave an MIC of 6.2 µg/mL (≈ 7.54 µM).

As for `COC1C(O)C(n2ccc(=O)[nH]c2=O)OC1C(OC1OC(C(N)=O)=CC(O)C1O)C(N)=O` (stereo not drawn) [amide derivative of compound A-500359F], in series [2], the Solubility in chloroform result is given as “insoluble”, the Solubility in methanol result was “slightly soluble”, the “Solubility in normal hexane” value was “insoluble” and the Solubility in water result is recorded as “soluble”. Moreover, the zone of inhibition at 40 µg/disc in series [3] was found to be 12 mm.
